Experimental data reported in ChEMBL document CHEMBL1240439, “Synthesis and docking studies of novel benzopyran-2-ones with anticancer activity” (2010).
Active and inactive are the calls of the source.

How the values were obtained:
Type in all cases: functional
HCC 2998 = assay: Cytotoxicity against human HCC2998 cells assessed as cell growth at 10 uM after 48 hrs by sulforhodamine B assay
786-0 = assay: Cytotoxicity against human 786-0 cells assessed as cell growth at 10 uM after 48 hrs by sulforhodamine B assay
HCT-15 = assay: Cytotoxicity against human HCT15 cells assessed as cell growth at 10 uM after 48 hrs by sulforhodamine B assay
KM12 = assay: Cytotoxicity against human KM12 cells assessed as cell growth at 10 uM after 48 hrs by sulforhodamine B assay
RXF 393 = assay: Cytotoxicity against human RXF393 cells assessed as cell growth at 10 uM after 48 hrs by sulforhodamine B assay
HOP-92 = assay: Cytotoxicity against human HOP92 cells assessed as cell growth at 10 uM after 48 hrs by sulforhodamine B assay
Hs-578T = assay: Cytotoxicity against human Hs 578T cells assessed as cell growth at 10 uM after 48 hrs by sulforhodamine B assay
NCI-H226 = assay: Cytotoxicity against human NCI-H226 cells assessed as cell growth at 10 uM after 48 hrs by sulforhodamine B assay
SNB-19 = assay: Cytotoxicity against human SNB19 cells assessed as cell growth at 10 uM after 48 hrs by sulforhodamine B assay
M14 = assay: Cytotoxicity against human M14 cells assessed as cell growth at 10 uM after 48 hrs by sulforhodamine B assay
A549 = assay: Cytotoxicity against human A549 cells assessed as cell growth at 10 uM after 48 hrs by sulforhodamine B assay
OVCAR-3 = assay: Cytotoxicity against human OVCAR-3 cells assessed as cell growth at 10 uM after 48 hrs by sulforhodamine B assay
NCI-H23 = assay: Cytotoxicity against human NCI-H23 cells assessed as cell growth at 10 uM after 48 hrs by sulforhodamine B assay
HL-60(TB) = assay: Cytotoxicity against human HL-60(TB) cells assessed as cell growth at 10 uM after 48 hrs by sulforhodamine B assay
HCT-116 = assay: Cytotoxicity against human HCT116 cells assessed as cell growth at 10 uM after 48 hrs by sulforhodamine B assay
DU-145 = assay: Cytotoxicity against human DU145 cells assessed as cell growth at 10 uM after 48 hrs by sulforhodamine B assay
SK-OV-3 = assay: Cytotoxicity against human SKOV3 cells assessed as cell growth at 10 uM after 48 hrs by sulforhodamine B assay
A498 = assay: Cytotoxicity against human A498 cells assessed as cell growth at 10 uM after 48 hrs by sulforhodamine B assay
SN12C = assay: Cytotoxicity against human SN12C cells assessed as cell growth at 10 uM after 48 hrs by sulforhodamine B assay
MDA-MB-231 = assay: Cytotoxicity against human MDA-MB-231 cells assessed as cell growth at 10 uM after 48 hrs by sulforhodamine B assay
RPMI-8226 = assay: Cytotoxicity against human RPMI8226 cells assessed as cell growth at 10 uM after 48 hrs by sulforhodamine B assay
HOP-62 = assay: Cytotoxicity against human HOP62 cells assessed as cell growth at 10 uM after 48 hrs by sulforhodamine B assay
MOLT-4 = assay: Cytotoxicity against human MOLT4 cells assessed as cell growth at 10 uM after 48 hrs by sulforhodamine B assay
UO-31 = assay: Cytotoxicity against human UO31 cells assessed as cell growth at 10 uM after 48 hrs by sulforhodamine B assay
EKVX = assay: Cytotoxicity against human EKVX cells assessed as cell growth at 10 uM after 48 hrs by sulforhodamine B assay
NCI-H460 = assay: Cytotoxicity against human NCI-H460 cells assessed as cell growth at 10 uM after 48 hrs by sulforhodamine B assay
UACC-257 = assay: Cytotoxicity against human UACC257 cells assessed as cell growth at 10 uM after 48 hrs by sulforhodamine B assay
HT-29 = assay: Cytotoxicity against human HT-29 cells assessed as cell growth at 10 uM after 48 hrs by sulforhodamine B assay
TK-10 = assay: Cytotoxicity against human TK10 cells assessed as cell growth at 10 uM after 48 hrs by sulforhodamine B assay
K562 = assay: Cytotoxicity against human K562 cells assessed as cell growth at 10 uM after 48 hrs by sulforhodamine B assay
T47D = assay: Cytotoxicity against human T47D cells assessed as cell growth at 10 uM after 48 hrs by sulforhodamine B assay
LOX IMVI = assay: Cytotoxicity against human LOXIMVI cells assessed as cell growth at 10 uM after 48 hrs by sulforhodamine B assay
SK-MEL-28 = assay: Cytotoxicity against human SK-MEL-28 cells assessed as cell growth at 10 uM after 48 hrs by sulforhodamine B assay
SK-MEL-5 = assay: Cytotoxicity against human SK-MEL-5 cells assessed as cell growth at 10 uM after 48 hrs by sulforhodamine B assay
OVCAR-4 = assay: Cytotoxicity against human OVCAR4 cells assessed as cell growth at 10 uM after 48 hrs by sulforhodamine B assay
OVCAR-8 = assay: Cytotoxicity against human OVCAR8 cells assessed as cell growth at 10 uM after 48 hrs by sulforhodamine B assay
COLO 205 = assay: Cytotoxicity against human COLO205 cells assessed as cell growth at 10 uM after 48 hrs by sulforhodamine B assay
MCF7 = assay: Cytotoxicity against human MCF7 cells assessed as cell growth at 10 uM after 48 hrs by sulforhodamine B assay
SW-620 = assay: Cytotoxicity against human SW620 cells assessed as cell growth at 10 uM after 48 hrs by sulforhodamine B assay
SNB-75 = assay: Cytotoxicity against human SNB75 cells assessed as cell growth at 10 uM after 48 hrs by sulforhodamine B assay
SF-268 = assay: Cytotoxicity against human SF268 cells assessed as cell growth at 10 uM after 48 hrs by sulforhodamine B assay
SF-295 = assay: Cytotoxicity against human SF295 cells assessed as cell growth at 10 uM after 48 hrs by sulforhodamine B assay
SK-MEL-2 = assay: Cytotoxicity against human SK-MEL-2 cells assessed as cell growth at 10 uM after 48 hrs by sulforhodamine B assay
ACHN = assay: Cytotoxicity against human ACHN cells assessed as cell growth at 10 uM after 48 hrs by sulforhodamine B assay
NCI-H322M = assay: Cytotoxicity against human NCI-H322M cells assessed as cell growth at 10 uM after 48 hrs by sulforhodamine B assay
MDA-MB-468 = assay: Cytotoxicity against human MDA-MB-468 cells assessed as cell growth at 10 uM after 48 hrs by sulforhodamine B assay
MDA-MB-435 = assay: Cytotoxicity against human MDA-MB-435 cells assessed as cell growth at 10 uM after 48 hrs by sulforhodamine B assay
OVCAR-5 = assay: Cytotoxicity against human OVCAR5 cells assessed as cell growth at 10 uM after 48 hrs by sulforhodamine B assay
NCI-H522 = assay: Cytotoxicity against human NCI-H522 cells assessed as cell growth at 10 uM after 48 hrs by sulforhodamine B assay
SF-539 = assay: Cytotoxicity against human SF539 cells assessed as cell growth at 10 uM after 48 hrs by sulforhodamine B assay
PC-3 = assay: Cytotoxicity against human PC3 cells assessed as cell growth at 10 uM after 48 hrs by sulforhodamine B assay
UACC-62 = assay: Cytotoxicity against human UACC62 cells assessed as cell growth at 10 uM after 48 hrs by sulforhodamine B assay
IGROV-1 = assay: Cytotoxicity against human IGROV1 cells assessed as cell growth at 10 uM after 48 hrs by sulforhodamine B assay
CCRF-CEM = assay: Cytotoxicity against human CCRF-CEM cells assessed as cell growth at 10 uM after 48 hrs by sulforhodamine B assay
U-251 = assay: Cytotoxicity against human U251 cells assessed as cell growth at 10 uM after 48 hrs by sulforhodamine B assay
SR = assay: Cytotoxicity against human SR cells assessed as cell growth at 10 uM after 48 hrs by sulforhodamine B assay
BT-549 = assay: Cytotoxicity against human BT549 cells assessed as cell growth at 10 uM after 48 hrs by sulforhodamine B assay
Malme-3M = assay: Cytotoxicity against human MALME-3M cells assessed as cell growth at 10 uM after 48 hrs by sulforhodamine B assay

Measured: Activity

Cc1c(OCc2nnc(S)o2)ccc2c(-c3ccccc3)cc(=O)oc12
inactive: all assays above

CCCc1cc(=O)oc2cc(OCC(=O)n3nc(C)cc3C)ccc12
inactive: all assays above
